Assays:
[1] = tested on: Mouse cortical cell cultures; test: NMDA neurotoxicity in cortical cell cultures (LDH release); assay type: cell-based; settings: for neuroprotective effect against NMDA neurotoxicity relative to BAS: comparison in words
Procedure: (§1) Primary cortical cell cultures from embryonic mice were prepared and used to examine neuroprotective action of compounds. Mouse cortical cell culture system has been extensively used to study mechanisms and pharmacological intervention of neuronal death in neurological diseases. In brief, mouse cerebral cortices were removed from brains of the 15 day-old-fetal mice, in accordance with a protocol approved by our institutional animal care committee. […] After 7 days in vitro (DIV 7), cultures were shifted into a growth medium identical to the plating medium but lacking fetal serum. At DIV 7 - 9, […] cytosine arabinofuranoside was included to halt overgrowth of glia. Mixed cultures of neurons and glia were then fed twice a week.

[2] = tested on: Mouse cortical cell cultures; test: Fe^2+-induced free radical neurotoxicity in cortical cell cultures (LDH release); assay type: cell-based; settings: for effect on Fe^2+-induced free radical neurotoxicity: 10 µM compound; for effect on Fe^2+-induced free radical neurotoxicity / effect on Fe^2+-induced neuronal death: continuous 50 µM Fe^2+; for prevention of free radical neurotoxicity relative to BAS / protection against free radical neurotoxicity relative to NBAS: comparison in words; for effect on Fe^2+-induced neuronal death: 1 µM compound
Procedure: as §1

[3] = tested on: Mouse cortical cell cultures; test: Zn^2+ neurotoxicity in cortical cell cultures (LDH release); assay type: cell-based; settings: for neuroprotective effect against Zn^2+ neurotoxicity relative to BAS: comparison in words
Procedure: as §1

[4] = DPPH anti-oxidant assay (decrease in DPPH absorption at 517 nm); assay type: biochemical; settings: mean ± SEM, n = 3, DPPH alone 1.2
Procedure: To examine anti-oxidant effect, DPPH (2,2-diphenyl-1-picryl-hydrazyl radical), a stable free radical, was dissolved in ethanol to make a 100 µM solution. A compound was reacted with DPPH or ethanol. After incubation for 30 min, relative decrease in DPPH absorption at 517 nm was measured by a spectrophotometer.

[5] = 300 µM compound, 300 µM NMDA for 10 min, in words
[6] = 100 µM compound reacted with 100 uM DPPH in ethanol for 30 min
[7] = 10 µM compound reacted with 100 uM DPPH in ethanol for 30 min
[8] = 30 µM compound reacted with 100 uM DPPH in ethanol for 30 min
[9] = 300 µM compound reacted with 100 uM DPPH in ethanol for 30 min

CCOC(=O)c1cc(N(Cc2ccc([N+](=O)[O-])cc2)C(C)=O)ccc1O [NNAHE, 5-(4-nitrobenzyl)-N-acetylamino-2-hydroxy ethylbenzoate]
effect on NMDA neurotoxicity [1, 5]: attenuated
effect on Fe^2+-induced free radical neurotoxicity ([2]; in words): blocked

O=C(O)c1cc(NCc2ccc(C(F)(F)F)cc2)ccc1O [TBAS, 5-(4-trifluoromethylbenzyl)aminosalicylic acid]
neuroprotective effect against Zn^2+ neurotoxicity relative to BAS [3]: did not reduce neuroprotective effects of BAS
neuroprotective effect against NMDA neurotoxicity relative to BAS [1]: did not reduce neuroprotective effects of BAS
prevention of free radical neurotoxicity relative to BAS [2]: more potent than BAS

O=C(O)c1cc(NCc2c(F)c(F)c(F)c(F)c2F)ccc1O [PBAS, 5-(pentafluorobenzyl)aminosalicylic acid]
inhibition at 300 µM ([1]; Mus musculus, 300 µM compound, 300 µM NMDA for 10 min, LDH 24 hr later, read-out: reduction of NMDA-induced neuronal death): ~65%

O=C(O)c1cc(NCc2ccc(Cl)cc2)ccc1O [CBAS, 5-(4-chlorobenzyl)aminosalicylic acid]
neuroprotective effect against Zn^2+ neurotoxicity relative to BAS [3]: did not reduce neuroprotective effects of BAS
neuroprotective effect against NMDA neurotoxicity relative to BAS [1]: did not reduce neuroprotective effects of BAS
prevention of free radical neurotoxicity relative to BAS [2]: more potent than BAS

O=C(O)c1cc(NS(=O)(=O)c2ccc([N+](=O)[O-])cc2)ccc1O [NBSAA, 5-(4-nitrobenzenesulfonyl)aminosalicylic acid]
effect on NMDA neurotoxicity [1, 5]: markedly reduced
effect on NMDA neurotoxicity ([1]; 30 - 300 µM compound, 300 µM NMDA for 10 min, in words): attenuated NMDA neurotoxicity in a dose-dependent manner
A517nm [4, 6]: 0.15 ± 0.05
protection against free radical neurotoxicity relative to NBAS [2]: weaker than NBAS

Nc1ccc(O)c(C(=O)O)c1 [AS, 5-amino salicylic acid]
effect on neuronal death after exposure to Zn^2+ ([3]; 10 - 300 µM compound during and post Zn^2+ treatment, 300 µM Zn^2+ for 30 min, in words): not reduced
effect on NMDA-induced neuronal death ([1]; 10 - 300 µM compound, 300 µM NMDA for 10 min, in words): did not attenuate
effect on free radical neurotoxicity following exposure to Fe^2+ ([2]; 10 - 100 µM compound, 24 hr-exposure to 50 µM Fe^2+, in words): dose-dependently prevented

O=C(Nc1ccc(O)c(C(=O)O)c1)c1ccc([N+](=O)[O-])cc1 [NBAA, 5-(4-nitrobenzoyl)aminosalicylic acid]
effect on NMDA neurotoxicity ([1]; 30 µM compound, 300 µM NMDA for 10 min, in words): significantly attenuated
change of protective effect against NMDA with higher doses ([1]; above 30 µM up to 300 µM, in words): not further increased
A517nm [4, 6]: 0.42 ± 0.22
protection against free radical neurotoxicity relative to NBAS [2]: weaker than NBAS

O=C(O)c1cc(NCCCc2ccc([N+](=O)[O-])cc2)ccc1O [NPPAA, 5-[3-(4-nitrophenyl)-n-propyl]aminosalicylic acid]
effect on NMDA neurotoxicity [1, 5]: slightly reduced
A517nm [4, 6]: 0.09 ± 0.02
effect on Fe^2+-induced neuronal death ([2]; in words): complete blockade
protection against free radical neurotoxicity relative to NBAS [2]: more effective than NBAS

CCOC(=O)c1cc(NCc2ccc([N+](=O)[O-])cc2)ccc1O [NAHE, 5-(4-nitrobenzyl)amino-2-hydroxy ethylbenzoate]
effect on NMDA neurotoxicity [1, 5]: attenuated
effect on Fe^2+-induced free radical neurotoxicity ([2]; in words): blocked

O=C(O)c1cc(NCc2ccc([N+](=O)[O-])cc2)ccc1O [NBAS, 5-(4-nitrobenzyl)aminosalicylic acid]
neuroprotective effect against Zn^2+ neurotoxicity relative to BAS [3]: did not reduce neuroprotective effects of BAS
neuroprotective effect against NMDA neurotoxicity relative to BAS [1]: did not reduce neuroprotective effects of BAS
A517nm [4, 7]: 0.37±0.1
A517nm [4, 8]: 0.04 ± 0.01
A517nm [4, 6]: 0.04±0.00
A517nm [4, 9]: 0.04±0.00
prevention of free radical neurotoxicity relative to BAS [2]: more potent than BAS

O=C(O)c1cc(NCCc2ccc([N+](=O)[O-])cc2)ccc1O [NPAA, 5-[2-(4-nitrophenyl)-ethyl]aminosalicylic acid]
effect on NMDA neurotoxicity [1, 5]: slightly reduced
A517nm [4, 6]: 0.09 ± 0.01
effect on Fe^2+-induced neuronal death ([2]; in words): complete blockade
protection against free radical neurotoxicity relative to NBAS [2]: more effective than NBAS

Cc1c(C)c2c(c(C)c1O)CCC(C)(C(=O)O)O2 (centres unmarked) [Trolox, trolox]
A517nm ([4]; 3 µM compound reacted with 100 uM DPPH in ethanol for 30 min): 1.08±0.1
A517nm [4, 7]: 0.89±0.08
A517nm [4, 8]: 0.39±0.06
A517nm [4, 6]: 0.05±0.01
A517nm [4, 9]: 0.03±0.01

CCOC(=O)c1cc(N(Cc2ccc([N+](=O)[O-])cc2)C(C)=O)ccc1OC(C)=O [NNAAE, 5-(4-nitrobenzyl)-N-acetylamino-2-acetoxy ethylbenzoate]
effect on NMDA neurotoxicity [1, 5]: attenuated
effect on Fe^2+-induced free radical neurotoxicity ([2]; in words): blocked
